Data on 20 compounds can be found in PubChem BioAssay AID328 (DTP/NCI, 2004).

The assay relates to BDF1 mice, P388 leukemia ip, median survival T/C. Briefly: NCI In Vivo Anticancer Drug Screen. Data for tumor model P388 Leukemia (intraperitoneal) in B6D2F1 (BDF1) mice. The settings on record: endpoint: median survival time, higher = longer survival. In short, it runs like this: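 T/C = treated-group survival ÷ vehicle-control survival; tumour transplanted into mice before dosing.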

Where [1] appears, read: dose: 2.0 mg/kg/injection, schedule: Q01DX010 (ip), vehicle: saline.
[2] abbreviates: dose: 4.0 mg/kg/injection, schedule: Q01DX010 (ip), vehicle: saline.
[3] abbreviates: dose: 50.0 mg/kg/injection, schedule: Q01DX005 (ip), vehicle: saline with Tween-80.
The mark [4] stands for this setting: dose: 100.0 mg/kg/injection, schedule: Q01DX005 (ip), vehicle: saline with Tween-80.
[5] abbreviates: dose: 200.0 mg/kg/injection, schedule: Q01DX005 (ip), vehicle: saline with Tween-80.
Where [6] appears, read: dose: 50.0 mg/kg/injection, schedule: Q01DX009 (ip), vehicle: saline with Tween-80.
The mark [7] stands for this setting: dose: 100.0 mg/kg/injection, schedule: Q01DX009 (ip), vehicle: saline with Tween-80.
Where [8] appears, read: dose: 200.0 mg/kg/injection, schedule: Q01DX009 (ip), vehicle: saline with Tween-80.
[9] abbreviates: dose: 100.0 mg/kg/injection, schedule: Q04DX003 (ip), vehicle: saline with Tween-80.
The mark [10] stands for this setting: dose: 200.0 mg/kg/injection, schedule: Q04DX003 (ip), vehicle: saline with Tween-80.
The mark [11] stands for this setting: dose: 400.0 mg/kg/injection, schedule: Q04DX003 (ip), vehicle: saline with Tween-80.
The mark [12] stands for this setting: dose: 50.0 mg/kg/injection, schedule: Q04DX003 (ip), vehicle: Klucel (hydroxypropylcellulose) (HPC).
Setting [13] is: dose: 100.0 mg/kg/injection, schedule: Q04DX003 (ip), vehicle: Klucel (hydroxypropylcellulose) (HPC).
[14] abbreviates: dose: 200.0 mg/kg/injection, schedule: Q04DX003 (ip), vehicle: Klucel (hydroxypropylcellulose) (HPC).
[15] abbreviates: dose: 12.5 mg/kg/injection, schedule: Q04DX003 (ip), vehicle: saline.
The mark [16] stands for this setting: dose: 25.0 mg/kg/injection, schedule: Q04DX003 (ip), vehicle: saline.

Several values for one entry are separate records, joined by “and”; a condition that tells them apart may be missing. Identical values can stand only once. Inconclusive results and toxic doses are left out. Residues, ends and D or L forms follow the SMILES beside them. *: point of attachment. Cbz = O=C(OCc1ccccc1)*; Bn = c1ccc(C*)cc1; βAla = NCCC(=O)O

For the compound `NC(CC[Se]CC(N)C(=O)O)C(=O)O` (stereo not given), the T/C is, setting by setting: (dose: 0.5 mg/kg/injection, schedule: Q01DX010 (ip), vehicle: saline) 90 % of control; (dose: 1.0 mg/kg/injection, schedule: Q01DX010 (ip), vehicle: saline) 104 % of control; under setting [1], 100 % of control; under setting [2], 104 % of control.

For `CCOC(=O)N1CCc2cc(OC)c(OC)cc2C1Cc1ccc(OC)c(OC)c1` (stereo not given), the T/C is 92 % of control under setting [3], 105 % of control under setting [4] and 92 % of control under setting [5].

As to `COc1cc2c(c(OC)c1OC)-c1ccc(OC)c(=O)cc1[C@@H](NC(=O)C(F)(F)F)CC2`, the T/C (dose: 0.09 mg/kg/injection, schedule: Q01DX009 (ip), vehicle: Klucel (hydroxypropylcellulose) (HPC)) is 155 % of control; the T/C (dose: 0.18 mg/kg/injection, schedule: Q01DX009 (ip), vehicle: Klucel (hydroxypropylcellulose) (HPC)) was 171 % of control; the T/C (dose: 0.39 mg/kg/injection, schedule: Q01DX009 (ip), vehicle: Klucel (hydroxypropylcellulose) (HPC)) was 245 % of control.

On to `Cc1nc(N)sc1CCCl`, for which the T/C (dose: 10.0 mg/kg/injection, schedule: Q01DX009 (ip), vehicle: saline) was 104 % of control; the T/C (dose: 20.0 mg/kg/injection, schedule: Q01DX009 (ip), vehicle: saline) is 104 % of control; the T/C (dose: 40.0 mg/kg/injection, schedule: Q01DX009 (ip), vehicle: saline) was 100 % of control; the T/C (dose: 80.0 mg/kg/injection, schedule: Q01DX009 (ip), vehicle: saline) is 113 % of control.

Consider `O=C1Oc2ccccc2C(=O)/C1=C1/C=C(c2ccccc2)SS1`, for which the T/C under setting [6] was 90 % of control, the T/C under setting [7] was 88 % of control and the T/C under setting [8] was 90 % of control.

On to `CC1(C)OC2(C)CCC1C(O)C2N1CCCCC1` (stereo not given), for which the T/C by setting is: under setting [3], 108 % of control; under setting [4], 95 % of control; under setting [5], 106 % of control.

For `CCCCCCC(=O)/C=C/c1cc(OC)ccc1OC`, the T/C was 100 % of control (dose: 12.5 mg/kg/injection, schedule: Q01DX009 (ip), vehicle: saline with Tween-80); 95 % of control (dose: 25.0 mg/kg/injection, schedule: Q01DX009 (ip), vehicle: saline with Tween-80); 104 % of control under setting [6]; 104 % of control under setting [7].

For `COC12C(COC(N)=O)C3=C(C(=O)C(C)=C(N)C3=O)N1CC1C2N1C` (stereo not given), the T/C runs as follows: (dose: 2.0 mg/kg/injection, schedule: Q01DX009 (ip), vehicle: saline) 163 % of control; under setting [1], 175 % of control; (dose: 4.0 mg/kg/injection, schedule: Q01DX009 (ip), vehicle: saline) 179 % of control; under setting [2], 190 % of control; (dose: 8.0 mg/kg/injection, schedule: Q01DX009 (ip), vehicle: saline) 198 % of control; (dose: 8.0 mg/kg/injection, schedule: Q01DX010 (ip), vehicle: saline) 240 % of control. For the same compound, the T/C is 88 % of control (dose: 16.0 mg/kg/injection, schedule: Q01DX009 (ip), vehicle: saline) and 110 % of control (dose: 16.0 mg/kg/injection, schedule: Q01DX010 (ip), vehicle: saline).

For `ClCCOCCOc1ccc(C2CCCCC2)cc1`, the T/C (dose: 100.0 mg/kg/injection, schedule: Q04DX003 (ip), vehicle: saline) was 100 % of control; the T/C (dose: 200.0 mg/kg/injection, schedule: Q04DX003 (ip), vehicle: saline) is 100 % of control; the T/C (dose: 400.0 mg/kg/injection, schedule: Q04DX003 (ip), vehicle: saline) was 100 % of control.

For the compound `Cc1nc(N)c(=O)[nH]c1C`, the T/C reads like this: under setting [7], 95 % of control; under setting [9], 108 % of control; under setting [8], 90 % of control; under setting [10], 95 % of control; (dose: 400.0 mg/kg/injection, schedule: Q01DX009 (ip), vehicle: saline with Tween-80) 90 % of control; under setting [11], 91 % of control.

As for `CN1C(=O)N(C)C2(C=Cc3cc([N+](=O)[O-])ccc3O2)N(C)C1=O`, the T/C (dose: 50.0 mg/kg/injection, schedule: Q01DX009 (ip), vehicle: saline) was 99 % of control; the T/C (dose: 100.0 mg/kg/injection, schedule: Q01DX009 (ip), vehicle: saline) is 101 % of control; the T/C (dose: 200.0 mg/kg/injection, schedule: Q01DX009 (ip), vehicle: saline) is 99 % of control.

As to `COc1cc2c(cc1OC)C(c1c(-c3c(Cl)cccc3Cl)noc1C)=NCC2`, the T/C was 99 % of control under setting [6], 92 % of control under setting [7] and 106 % of control under setting [8].

As for `NC(=O)CCCNC(=O)CCC[c-]1[c-][c-][c-][c-]1.[Fe].[c-]1[c-][c-][cH-][c-]1`, the T/C reads like this: (dose: 6.25 mg/kg/injection, schedule: Q01DX009 (ip), vehicle: other) 100 % of control; (dose: 12.5 mg/kg/injection, schedule: Q01DX009 (ip), vehicle: other) 98 % of control; (dose: 25.0 mg/kg/injection, schedule: Q01DX009 (ip), vehicle: other) 100 % of control; (dose: 50.0 mg/kg/injection, schedule: Q01DX009 (ip), vehicle: other) 114 % of control; (dose: 100.0 mg/kg/injection, schedule: Q01DX009 (ip), vehicle: other) 121 % of control.

In the case of `CCOCc1ccc(OCc2ccccc2)cc1`, the T/C under setting [6] was 94 % of control, the T/C under setting [7] was 108 % of control and the T/C under setting [8] was 119 % of control.

`O=C1c2ccccc2CCC12OC2c1ccccc1[N+](=O)[O-]` (stereo not given): the T/C runs as follows: under setting [12], 110 % of control; under setting [13], 100 % of control; under setting [14], 110 % of control.

Take `COc1cc(C(=O)N(CCCl)N=O)cc(OC)c1OC`: the T/C (dose: 25.0 mg/kg/injection, schedule: Q04DX003 (ip), vehicle: saline with Tween-80) was 100 % of control; the T/C under setting [6] was 100 % of control; the T/C (dose: 50.0 mg/kg/injection, schedule: Q04DX003 (ip), vehicle: saline with Tween-80) was 100 % of control; the T/C under setting [7] is 100 % of control; the T/C under setting [9] was 100 % of control and 109 % of control; the T/C under setting [8] is 100 % of control. In addition, the T/C reads like this: under setting [10], 100 % of control; under setting [11], 109 % of control.

Regarding `COC(=O)C(CSCc1ccccc1)NC(=O)C(CSCc1ccccc1)NC(=O)CCNC(=O)OCc1ccccc1` (stereo not given) ({Cbz-βAla}-Cys(Bn)-Cys(Bn)-OMe; configuration not given here), the T/C is 102 % of control (dose: 25.0 mg/kg/injection, schedule: Q04DX003 (ip), vehicle: Klucel (hydroxypropylcellulose) (HPC)); 100 % of control under setting [12]; 95 % of control under setting [13]; 93 % of control under setting [14]; 93 % of control (dose: 400.0 mg/kg/injection, schedule: Q04DX003 (ip), vehicle: Klucel (hydroxypropylcellulose) (HPC)).

With `O=C1NCCN1c1ccccn1`, the T/C is 100 % of control under setting [15]; 90 % of control under setting [16]; 95 % of control (dose: 50.0 mg/kg/injection, schedule: Q04DX003 (ip), vehicle: saline).

For `CNC(C)c1ccc(C)cc1` (stereo not given), the T/C (dose: 6.25 mg/kg/injection, schedule: Q04DX003 (ip), vehicle: saline) is 100 % of control; the T/C under setting [15] was 104 % of control; the T/C under setting [16] was 100 % of control.

On to `CCOP(=S)(OCC)Sc1cnn(C)c(=O)c1SCC`, for which the T/C was 100 % of control under setting [3], 99 % of control under setting [4] and 100 % of control under setting [5].
